Test systems include CAKI-1 renal; OVCAR-4 ovarian; HS 578T breast; SW-620 colon; OVCAR-8 ovarian; SN12C renal; PC-3 prostate; CCRF-CEM leukemia; SK-MEL-5 melanoma; KM12 colon.
Common to all, as to assay: NCI tumour cell line growth inhibition, 48 h

The structures appear in SMILES notation.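 Five concentrations, 48 hours, 96-well plates. GI50: concentration for 50% inhibition of growth. At the TGI there is no net growth.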

On to `CCN(CC)c1ccc2nc3c4ccccc4c(=O)cc-3n(-c3ccccc3)c2c1`, for which the GI50 in the test on CAKI-1 renal was 1.32 µM; with OVCAR-4 ovarian, 1.2 µM; in the test on HS 578T breast, 2.37 µM; in the test on SW-620 colon, 2.89 µM; in the test on OVCAR-8 ovarian it was 1.75 µM; with SN12C renal, 2.72 µM. Moreover, the GI50 with PC-3 prostate was 1.9 µM; in the test with CCRF-CEM leukemia, 2.33 µM; in the test with SK-MEL-5 melanoma, 0.444 µM; with KM12 colon, 1.69 µM. Moreover, the TGI amounted to 4.52 µM with CAKI-1 renal; 15.1 µM with OVCAR-4 ovarian; 7.24 µM with HS 578T breast; 13.6 µM in the test on SW-620 colon; 5.11 µM in the test on OVCAR-8 ovarian; 40.2 µM in the test with SN12C renal. Moreover, the TGI turned out to be 7.58 µM in the test with PC-3 prostate, 7.72 µM with CCRF-CEM leukemia, 1.74 µM with SK-MEL-5 melanoma and 4.46 µM in the test on KM12 colon.
For `CCOC(=O)/C(C#N)=C1\SS/C(=C(/C#N)C(=O)OCC)S1`, the GI50 with CAKI-1 renal is 4.38 µM; in the test on OVCAR-4 ovarian it was 15.1 µM; in the test on HS 578T breast, 47.9 µM; in the test with SW-620 colon, 5.4 µM; in the test with OVCAR-8 ovarian, 20.3 µM; with SN12C renal it was 19.9 µM. The GI50 was 19.7 µM with PC-3 prostate, 4.62 µM in the test with CCRF-CEM leukemia, 32 µM with SK-MEL-5 melanoma and 20.1 µM in the test on KM12 colon. For the same compound, the TGI is 18.6 µM in the test on CAKI-1 renal; 29.8 µM in the test on OVCAR-4 ovarian; more than 100 µM with HS 578T breast; 32.7 µM in the test on SW-620 colon; 41.1 µM in the test with OVCAR-8 ovarian; 43.3 µM in the test with SN12C renal. The TGI in the test on PC-3 prostate is 40.7 µM; in the test with CCRF-CEM leukemia it was 67.7 µM; in the test with SK-MEL-5 melanoma, more than 100 µM; in the test on KM12 colon, 41.3 µM.
For `Cc1ccc(Cl)cc1NC(=O)c1cc2ccccc2cc1O`, the GI50 was 0.219 µM in the test on CAKI-1 renal; 0.409 µM in the test on OVCAR-4 ovarian; 0.304 µM in the test with HS 578T breast; 0.414 µM in the test with SW-620 colon; 0.356 µM with OVCAR-8 ovarian; 0.265 µM in the test with SN12C renal. The GI50 in the test on PC-3 prostate is 0.289 µM; in the test on CCRF-CEM leukemia, 0.733 µM; in the test with SK-MEL-5 melanoma it was 0.277 µM; with KM12 colon, 0.396 µM. In addition, the TGI in the test with CAKI-1 renal was 0.921 µM; with OVCAR-4 ovarian, more than 100 µM; in the test with HS 578T breast, 1.96 µM; in the test with SW-620 colon, more than 100 µM; in the test with OVCAR-8 ovarian, 12.4 µM; with SN12C renal, 1.92 µM. Besides, the TGI in the test on CCRF-CEM leukemia came to 2.84 µM; with SK-MEL-5 melanoma, 0.824 µM; in the test with KM12 colon, 1.89 µM.
Turning to `COc1cc(/C=C/C(=O)/C=C/c2cc3ccc(Cl)cc3n(Cc3ccccc3)c2=O)ccc1O`, the GI50 in the test with CAKI-1 renal is 2.08 µM; in the test with OVCAR-4 ovarian it was 2.48 µM; with HS 578T breast, 3.79 µM; in the test with SW-620 colon, 1.56 µM; in the test on OVCAR-8 ovarian, 0.497 µM; in the test with SN12C renal, 1.95 µM. Besides, the GI50 is 1.92 µM with PC-3 prostate, 1.4 µM with CCRF-CEM leukemia, 1.69 µM in the test with SK-MEL-5 melanoma and 1.7 µM in the test with KM12 colon. Also, the TGI with CAKI-1 renal is 4.54 µM; with OVCAR-4 ovarian, 37.8 µM; in the test with HS 578T breast, 62 µM; with SW-620 colon, 4.33 µM; in the test with OVCAR-8 ovarian, 11.7 µM; in the test with SN12C renal, 5.01 µM. For the same compound, the TGI with PC-3 prostate is 5.6 µM; with CCRF-CEM leukemia it was more than 100 µM; in the test on SK-MEL-5 melanoma, 3.17 µM; in the test with KM12 colon, 3.59 µM.
For the compound `COc1ccccc1/C=C/C1=C(C)CCC(c2ccccc2OC)C1C` (configuration not stated), the GI50 with CAKI-1 renal is 0.157 µM; in the test with OVCAR-4 ovarian it was 1.37 µM; with HS 578T breast, 0.112 µM; with SW-620 colon, 0.138 µM; in the test on OVCAR-8 ovarian, 0.137 µM; in the test on SN12C renal it was 0.323 µM. The GI50 with PC-3 prostate is 0.392 µM; with CCRF-CEM leukemia, 0.0684 µM; in the test on SK-MEL-5 melanoma, 0.122 µM; with KM12 colon, 0.0879 µM. The TGI with CAKI-1 renal was 7.69 µM; in the test with OVCAR-4 ovarian it was more than 100 µM; with HS 578T breast it was 0.708 µM; with SW-620 colon, more than 100 µM; in the test with SN12C renal, more than 100 µM; in the test with PC-3 prostate, more than 100 µM. In addition, the figures for the TGI in the test with CCRF-CEM leukemia and with SK-MEL-5 melanoma were more than 100 µM and 0.379 µM, respectively.
Take `Cc1nc(-c2cnc(NC(C)C)n(C)c2=O)ccc1Oc1ccnc(-c2cnn(C)c2)c1`: the GI50 with CAKI-1 renal is 7.51 µM; in the test on OVCAR-4 ovarian, 7.28 µM; with HS 578T breast it was 12.2 µM; in the test on SW-620 colon, 5.49 µM; in the test on OVCAR-8 ovarian, 21.3 µM; with SN12C renal it was 19.7 µM. The GI50 in the test on PC-3 prostate was 16.5 µM; in the test on CCRF-CEM leukemia, 12.1 µM; in the test with SK-MEL-5 melanoma, 4.59 µM; in the test on KM12 colon it was 5.91 µM. In addition, the TGI is 65.2 µM in the test on CAKI-1 renal; more than 100 µM in the test with OVCAR-4 ovarian; 67.6 µM with HS 578T breast; more than 100 µM in the test with SW-620 colon; more than 100 µM in the test with OVCAR-8 ovarian; more than 100 µM in the test on SN12C renal. Also, the TGI with PC-3 prostate is more than 100 µM; in the test on CCRF-CEM leukemia, more than 100 µM; in the test on SK-MEL-5 melanoma it was 19.5 µM; in the test with KM12 colon, more than 100 µM.
As to `O=C1c2cccnc2C(=O)c2c1c(C(=O)NCCn1ccnc1)c1ccccn21`, the GI50 was 15.1 µM in the test with CAKI-1 renal; 1.62 µM in the test on OVCAR-4 ovarian; 5.26 µM in the test with HS 578T breast; 2.55 µM in the test on SW-620 colon; 2.48 µM in the test with OVCAR-8 ovarian; 2.28 µM with SN12C renal. For the same compound, the GI50 in the test with PC-3 prostate was 3.33 µM; with CCRF-CEM leukemia, 6.12 µM; in the test on SK-MEL-5 melanoma, 1.06 µM; in the test on KM12 colon, 2.96 µM. Further, the TGI with CAKI-1 renal was determined as 34.5 µM; in the test with OVCAR-4 ovarian, 3.95 µM; with HS 578T breast, 38.7 µM; in the test on SW-620 colon it was 11.1 µM; in the test with OVCAR-8 ovarian, 8.06 µM; in the test with SN12C renal it was 7.28 µM. For the same compound, the TGI is 15.2 µM with PC-3 prostate, more than 100 µM in the test on CCRF-CEM leukemia, 2.26 µM with SK-MEL-5 melanoma and 19 µM with KM12 colon.
For `COc1cccc(C2=C(c3cn(C)c4cc(F)ccc34)C(=O)NC2=O)c1`, the GI50 with CAKI-1 renal is more than 13.4 µM; with OVCAR-4 ovarian it was more than 8.37 µM; in the test on HS 578T breast, more than 24 µM; in the test with SW-620 colon, 13.1 µM; with OVCAR-8 ovarian, more than 18.2 µM; in the test with SN12C renal, more than 21.5 µM. Also, the GI50 in the test on PC-3 prostate is 12.5 µM; with CCRF-CEM leukemia, 9.63 µM; with SK-MEL-5 melanoma, 11 µM; in the test on KM12 colon, more than 17.4 µM. The TGI with CAKI-1 renal, in the test with OVCAR-4 ovarian, with HS 578T breast, in the test on SW-620 colon, with OVCAR-8 ovarian and in the test with SN12C renal was more than 25 µM throughout. Also, the TGI was more than 25 µM in the test on PC-3 prostate, more than 25 µM in the test on CCRF-CEM leukemia, more than 21 µM with SK-MEL-5 melanoma and more than 25 µM with KM12 colon.

(Values after PubChem BioAssay (NCI).)
